Test systems include EKVX NSCLC; HCT-116 colon; HL-60(TB) leukemia; LOX IMVI melanoma; MALME-3M melanoma; OVCAR-5 ovarian; SR leukemia; SW-620 colon; U251 CNS; UO-31 renal.
Holding throughout (assay): DTP human tumour cell line panel, 48 h

The values below come from PubChem BioAssay (NCI).

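48-hour exposure; five concentrations; linearly interpolated endpoints. GI50 marks 50% less growth. TGI: concentration producing complete growth inhibition.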 Bounds are passed on as bounds.

As to `COc1cc(-c2cc(-c3ccc(Nc4nc(Nc5ccc(Cl)cc5)nc(Nc5ccc(Cl)cc5)n4)cc3)no2)cc(OC)c1OC`, the GI50 with EKVX NSCLC is 24.9 µM; with HCT-116 colon it was 4.31 µM; in the assay on HL-60(TB) leukemia it was 2.32 µM; with LOX IMVI melanoma it was 11.4 µM; in the assay on MALME-3M melanoma, 50.3 µM; with OVCAR-5 ovarian, 27.3 µM. The GI50 in the assay with SR leukemia was 1.92 µM; with SW-620 colon it was 19.9 µM; with U251 CNS it was 11.4 µM; in the assay on UO-31 renal, 6 µM. Moreover, the TGI with EKVX NSCLC is > 100 µM; with HCT-116 colon, 42.9 µM; in the assay on HL-60(TB) leukemia it was 55.5 µM; in the assay on LOX IMVI melanoma, > 100 µM; in the assay with MALME-3M melanoma, > 100 µM; in the assay on OVCAR-5 ovarian, > 100 µM. In addition, the TGI with SR leukemia was 21.6 µM; in the assay with SW-620 colon, > 100 µM; in the assay with U251 CNS, > 100 µM; in the assay on UO-31 renal it was > 100 µM.

Regarding `COC1C[C@H](O[C@@H]2C[C@H](O[C@@H]3C[C@H](O[C@@H]4C(=O)c5c(cc6cc(O[C@H]7C[C@@H](O[C@H]8C[C@@H](O)[C@H](O)C(C)O8)[C@H](O)C(C)O7)c(C)c(O)c6c5O)C[C@H]4C(OC)C(=O)[C@@H](O)[C@@H](C)O)OC(C)[C@H]3O)OC(C)[C@@H]2O)OC(C)[C@@H]1O` (stereo not given in full), the GI50 with EKVX NSCLC is 0.122 µM; in the assay with HCT-116 colon it was 0.0968 µM; with HL-60(TB) leukemia, 0.362 µM; with LOX IMVI melanoma, 0.0545 µM; in the assay with MALME-3M melanoma it was 0.0861 µM; with OVCAR-5 ovarian, 0.106 µM. Also, the GI50 is 0.0406 µM in the assay on SR leukemia, 0.127 µM in the assay with SW-620 colon, 0.0631 µM with U251 CNS and 0.294 µM with UO-31 renal. Also, the TGI was 10.3 µM with EKVX NSCLC; > 32.5 µM in the assay on HCT-116 colon; > 32.5 µM with HL-60(TB) leukemia; 0.168 µM in the assay on LOX IMVI melanoma; 0.437 µM in the assay on MALME-3M melanoma; > 32.5 µM with OVCAR-5 ovarian. In addition, the TGI in the assay with SR leukemia is > 32.5 µM; in the assay on SW-620 colon, > 32.5 µM; in the assay on U251 CNS, 29.6 µM; in the assay on UO-31 renal, 4.76 µM.

In the case of `C#Cc1cccc(NC(=O)C2CCCCN2C(=O)CCl)c1` (stereo not given), the GI50 is > 82.5 µM in the assay on EKVX NSCLC; 13.7 µM with HCT-116 colon; 16.8 µM with HL-60(TB) leukemia; 7.6 µM in the assay on LOX IMVI melanoma; 9.93 µM in the assay with MALME-3M melanoma; 13.1 µM in the assay with OVCAR-5 ovarian. For the same compound, the GI50 was 3.6 µM in the assay with SR leukemia, 12.1 µM with SW-620 colon, 15.1 µM in the assay with U251 CNS and 13.6 µM in the assay with UO-31 renal. In addition, the TGI was > 82.5 µM with EKVX NSCLC; 43.2 µM in the assay on HCT-116 colon; 51.7 µM in the assay with HL-60(TB) leukemia; 18.6 µM in the assay on LOX IMVI melanoma; 22.4 µM with MALME-3M melanoma; 27.2 µM in the assay on OVCAR-5 ovarian. The TGI in the assay on SR leukemia was found to be 66.8 µM; in the assay with SW-620 colon, 31.5 µM; in the assay with U251 CNS, 35.8 µM; in the assay with UO-31 renal, 25.7 µM.

Consider `O=Cc1cc2sc(C=O)cc2s1`, for which the TGI with EKVX NSCLC, with HCT-116 colon, in the assay on HL-60(TB) leukemia, in the assay with LOX IMVI melanoma, with MALME-3M melanoma and in the assay with OVCAR-5 ovarian was > 100 µM in each case. Further, the TGI in the assay with SR leukemia, with SW-620 colon, in the assay on U251 CNS and in the assay with UO-31 renal was > 100 µM in each case.

Take `CCN1C(=O)N(CC)C2C1NN=c1s/c(=C\c3ccc(Br)cc3)c(=O)n12` (stereo not given): the GI50 is 0.502 µM in the assay on EKVX NSCLC; 0.107 µM in the assay on HCT-116 colon; 0.107 µM in the assay with HL-60(TB) leukemia; 0.185 µM in the assay with LOX IMVI melanoma; 2.39 µM with MALME-3M melanoma; 0.583 µM in the assay on OVCAR-5 ovarian. Also, the GI50 was 0.04 µM in the assay on SR leukemia, 0.0762 µM with SW-620 colon, 0.18 µM with U251 CNS and 1.51 µM in the assay with UO-31 renal. The TGI in the assay on EKVX NSCLC was > 100 µM; in the assay with HCT-116 colon, > 100 µM; in the assay with HL-60(TB) leukemia, 1.43 µM; in the assay on LOX IMVI melanoma, > 100 µM; in the assay with MALME-3M melanoma, > 100 µM; in the assay with OVCAR-5 ovarian it was > 100 µM. Also, the TGI was > 100 µM in the assay with SR leukemia, > 100 µM in the assay on SW-620 colon, > 54.2 µM in the assay on U251 CNS and > 100 µM in the assay on UO-31 renal.

In the case of `CC1(/C=C/c2ccc(-c3ccccc3)cc2)CCn2cnc3ncnc(c32)N1O` (stereo not given), the GI50 with EKVX NSCLC is 0.305 µM; in the assay on HCT-116 colon it was 0.358 µM; with HL-60(TB) leukemia it was 0.318 µM; in the assay on LOX IMVI melanoma it was 0.302 µM; in the assay on MALME-3M melanoma, 0.412 µM; in the assay on OVCAR-5 ovarian, 0.623 µM. Also, the GI50 is 0.31 µM with SR leukemia, 0.529 µM with SW-620 colon, 0.418 µM in the assay on U251 CNS and 0.162 µM in the assay on UO-31 renal. For the same compound, the total growth inhibition concentration (TGI) was > 100 µM with EKVX NSCLC; 18.6 µM in the assay on HCT-116 colon; 1.81 µM with HL-60(TB) leukemia; 21.6 µM with LOX IMVI melanoma; 14.7 µM with MALME-3M melanoma; 58.7 µM in the assay on OVCAR-5 ovarian. Besides, the TGI with SR leukemia is > 100 µM; in the assay with SW-620 colon it was 24.6 µM; in the assay on U251 CNS, 22 µM; in the assay with UO-31 renal, 1.2 µM.
